Data on five compounds can be found in patent publication US8143374B2, “Polypeptide derivatives of parathyroid hormone (PTH)” (The General Hospital Corporation, priority 2006, dated 2012).

Where a SMILES comes first, the peptide text is derived from it. [ ]: non-standard residue; d: D form. Cha = N[C@@H](CC1CCCCC1)C(=O)O

Series [1] in a line: Circular dichroism spectroscopy, helical residues per peptide chain. It is filed as physicochemical. Particulars: [Ala1,Arg19]hPTH(1-31)NH2 analogs; calculated from [θ]222. As for the experimental part:
Circular Dichroism—CD spectra were obtained on a JASCO J-600 spectropolarimeter at 20° C. Four spectra were averaged and the data smoothed by the JASCO software. The instrument was calibrated with ammonium (+)-10-camphorsulfonate. Peptide concentrations were verified from the absorption at 280 nm, using an extinction coefficient of 5700 M^−1 for the single tryptophan. Data are expressed as the number of helical residues per peptide chain, as calculated from −[θ]222×30/28,000, where [θ]222 is the mean residue elipticity ([θ]) at 222 nm, as was described previously (Barbier, J. R., et al. (2005) J Biol Chem. 280:23771-23777).

The target of another series is T1, PTHR-delNt (Homo sapiens, UniProt Q03431, DEL24-181).
T1 construct: expressed in transfected cells; host or cells: COS-7 cells, transient co-transfection; membranes prepared
T1 sequence (Q03431 with tags, fused parts or gaps DEL24-181): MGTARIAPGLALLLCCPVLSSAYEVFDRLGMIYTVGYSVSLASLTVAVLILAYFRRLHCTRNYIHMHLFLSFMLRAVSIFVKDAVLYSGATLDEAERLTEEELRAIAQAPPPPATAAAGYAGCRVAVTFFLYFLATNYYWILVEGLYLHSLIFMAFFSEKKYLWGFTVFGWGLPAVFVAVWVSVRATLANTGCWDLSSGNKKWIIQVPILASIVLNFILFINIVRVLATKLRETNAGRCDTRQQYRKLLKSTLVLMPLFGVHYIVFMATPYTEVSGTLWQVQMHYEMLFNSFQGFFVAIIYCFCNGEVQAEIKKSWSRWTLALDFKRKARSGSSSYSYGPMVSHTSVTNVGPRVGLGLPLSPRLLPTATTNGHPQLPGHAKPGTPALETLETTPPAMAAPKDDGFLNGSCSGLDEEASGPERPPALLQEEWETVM
The series is described as follows: Competition binding in COS-7 cell membranes with 125I-[Aib1,3,M]PTH(1-15)NH2 tracer. Particulars: for reduction (alteration) of binding affinity for PTHR-delNt relative to parent peptide: versus the respective parent peptide; for IC50: [Ala1,Arg19]hPTH(1-31)NH2 analogs, COS-7 membranes cotransfected with negative-dominant Gαs, read-out: PTHR-delNT (COS-7) IC50. As for the experimental part:
PTHR-delNt is a derivative of the human PTHR that is deleted for most (Ala^24-Arg^181) of the amino-terminal extracellular domain (Shimizu, M., et al. (2001) Endocrinology 142:3068-3074). This PTHR construct was expressed in COS-7 cells via transient DNA transfection. For cAMP assays, the cells were transfected in 24-well plates using 0.2 μg of plasmid DNA and 0.6 μl of Fugene-6 reagent (Roche Diagnostics, Indianapolis Ind.) per well, and assays were performed on the intact cells three to four days after transfection. For binding assays, cell membranes were prepared from transfected COS-7 cells. To increase the maximal binding of ^125I-[Aib^1,3,M]PTH(1-15)NH2 to PTHR-delNt in these membranes, the cells were cotransfected with a negative dominant mutant Gαs protein (Gαs^ND). This mutant Gαs subunit is thought to couple to cognate receptors, and thus stabilize high affinity receptor conformations, more efficiently than does wild-type Gαs, without increasing basal cAMP levels (Berlot, C. H. (2002) J Biol Chem 277:21080-5). A precursor of this mutant Gαs, Gαs(α3β5), was recently used to increase binding of ^125I-[Aib^1,3,M]PTH(1-15)NH2 to PTHR-delNt in COS-7 cell membranes (Dean, T., (2006) Mol Endocrinol 20:931-942). Gαs^ND, which contains the same five amino acid replacement of corresponding Gαi residues in the α3β5 loop as Gαs(α3β5), plus the point mutations of Gly^226 to Ala, which increases affinity for Gβ/γ, and Ala^366 to Ser, which decreases affinity for GDP, yields approximately two-fold higher levels of specific binding of ^125I-[Aib^1,3,M]PTH(1-15)NH2 than does Gαs(α3β5) (data not shown). For the current membrane preparations, COS-7 cells were co-transfected in six-well plates using 1 μg of each plasmid DNA encoding PTHR-delNt and Gαs^ND, and 6 μl of Fugene-6 reagent (Roche Diagnostics, Indianapolis Ind.) per well. Cells were harvested three days after transfection, and membranes were prepared as described (Dean, T., et al. (2006) Mol Endocrinol 20:931-942).
Receptor binding—Binding to the wild-type human PTHR in intact HKRK-B7 cells and ROS 17/2.8 cells was assessed using ^125I-PTH(1-34) as a tracer radioligand, as described (Shimizu, M., (2001) Endocrinology 142:3068-3074). In brief, the cells in 24-well plates (about 500,000 cells per well) were incubated in binding buffer containing radioligand (about 100,000 cpm per well) with or without unlabeled peptide ligand (3×10^−9 to 1×10^−5 M) for four hours at 15° C. The binding mixture was then removed by aspiration, the cells were rinsed three times with binding buffer, lysed in 1 M NaOH, and the entire lysate was counted for gamma-irradiation in a gamma counter. Binding to PTHR-delNt in COS-7 cell membranes was assessed in 96-well, vacuum filtration plates (Multiscreen-Durapore HV, […] membranes, Millipore Corp., Millford, Mass.) using ^125I-[Aib^1,3,M]PTH(1-15)NH2 as a tracer radioligand, as described (Dean, T., (2006) Mol Endocrinol 20:931-942). In brief, cell membranes (20 μg/well) were incubated in membrane binding buffer containing radioligand (30,000 cpm/well) with or without unlabeled peptide ligand (3×10^−9 to 1×10^−5 M) for 90 minutes at 21° C. The plates were then subject to rapid vacuum filtration, the filters were washed once with buffer, detached from the plate and counted for gamma-irradiation in a gamma counter. Non-specific binding was defined as the binding observed in the presence of 1×10^−6 M PTH(1-31)NH2 for HKRK-B7 and ROS 17/2.8 cells, and 1×10^−6 M [Aib^1,3,M]PTH(1-15)NH2 for PTHR-delNt. Specifically bound radioactivity was calculated as a percentage of the radioactivity specifically bound in the absence of competing ligand. […]

Turning to `CC[C@H](C)[C@H](NC(=O)[C@H](CCC(=O)O)NC(=O)[C@H](CO)NC(=O)[C@@H](NC(=O)[C@H](C)N)C(C)C)C(=O)N[C@@H](CCC(N)=O)C(=O)N[C@@H](CC(C)C)C(=O)N[C@@H](CCSC)C(=O)N[C@@H](Cc1c[nH]cn1)C(=O)N[C@@H](CC(N)=O)C(=O)N[C@@H](CC(C)C)C(=O)NCC(=O)N[C@@H](CCCCN)C(=O)N[C@@H](Cc1c[nH]cn1)C(=O)N[C@@H](CC(C)C)C(=O)N[C@@H](CC(N)=O)C(=O)N[C@@H](CO)C(=O)N[C@@H](CCSC)C(=O)N[C@@H](CCCNC(=N)N)C(=O)N[C@@H](CCCNC(=N)N)C(=O)N[C@H](C(=O)N[C@@H](CCC(=O)O)C(=O)N[C@@H](Cc1c[nH]c2ccccc12)C(=O)N[C@@H](CC(C)C)C(=O)N[C@@H](CCCNC(=N)N)C(=O)N[C@@H](CC1CCCCC1)C(=O)N[C@@H](CCCCN)C(=O)N[C@@H](CC(C)C)C(=O)N[C@@H](CCC(N)=O)C(=O)N[C@@H](CC(=O)O)C(=O)N[C@H](C(N)=O)C(C)C)C(C)C` [Lys^26→Cha] (H-AVSEIQLMHNLGKHLNSMRRVEWLR[Cha]KLQDV-NH2; N-terminus assumed), the CD helical residues in series [1] is listed as 6. Besides, at PTHR-delNt (COS-7 membranes), the “reduction (alteration) of binding affinity for PTHR-delNt relative to parent peptide” value is “approximately five- to seven-fold”. Also, the half-inhibitory concentration (IC50) at PTHR-delNt amounted to 1.87 ± 0.281 µM.

With `CC[C@H](C)[C@H](NC(=O)[C@H](CCC(=O)O)NC(=O)[C@H](CO)NC(=O)[C@@H](NC(=O)[C@H](C)N)C(C)C)C(=O)N[C@@H](CCC(N)=O)C(=O)N[C@@H](CC(C)C)C(=O)N[C@@H](CCSC)C(=O)N[C@@H](Cc1c[nH]cn1)C(=O)N[C@@H](CC(N)=O)C(=O)N[C@@H](CC(C)C)C(=O)NCC(=O)N[C@@H](CCCCN)C(=O)N[C@@H](Cc1c[nH]cn1)C(=O)N[C@@H](CC(C)C)C(=O)N[C@@H](CC(N)=O)C(=O)N[C@@H](CO)C(=O)N[C@@H](CCSC)C(=O)N[C@@H](CCCNC(=N)N)C(=O)N[C@@H](CCCNC(=N)N)C(=O)N[C@H](C(=O)N[C@@H](CCC(=O)O)C(=O)N[C@@H](Cc1c[nH]c2ccccc12)C(=O)N[C@@H](CC(C)C)C(=O)N[C@@H](CCCNC(=N)N)C(=O)N[C@@H](CCCCN)C(=O)N[C@@H](CC1CCCCC1)C(=O)N[C@@H](CC(C)C)C(=O)N[C@@H](CCC(N)=O)C(=O)N[C@@H](CC(=O)O)C(=O)N[C@H](C(N)=O)C(C)C)C(C)C` [Lys^27→Cha] (H-AVSEIQLMHNLGKHLNSMRRVEWLRK[Cha]LQDV-NH2; N-terminus assumed), in series [1], the CD helical residues is on record as 18. Moreover, the IC50 at PTHR-delNt was 0.629 ± 0.072 µM.

For the compound `CC[C@H](C)[C@H](NC(=O)[C@H](CCC(=O)O)NC(=O)[C@H](CO)NC(=O)[C@@H](NC(=O)[C@H](C)N)C(C)C)C(=O)N[C@@H](CCC(N)=O)C(=O)N[C@@H](CC(C)C)C(=O)N[C@@H](CCSC)C(=O)N[C@@H](Cc1c[nH]cn1)C(=O)N[C@@H](CC(N)=O)C(=O)N[C@@H](CC(C)C)C(=O)NCC(=O)N[C@@H](CCCCN)C(=O)N[C@@H](Cc1c[nH]cn1)C(=O)N[C@@H](CC(C)C)C(=O)N[C@@H](CC(N)=O)C(=O)N[C@@H](CO)C(=O)N[C@@H](CC1CCCCC1)C(=O)N[C@@H](CCCNC(=N)N)C(=O)N[C@@H](CCCNC(=N)N)C(=O)N[C@H](C(=O)N[C@@H](CCC(=O)O)C(=O)N[C@@H](Cc1c[nH]c2ccccc12)C(=O)N[C@@H](CC(C)C)C(=O)N[C@@H](CCCNC(=N)N)C(=O)N[C@@H](CCCCN)C(=O)N[C@@H](CCCCN)C(=O)N[C@@H](CC(C)C)C(=O)N[C@@H](CCC(N)=O)C(=O)N[C@@H](CC(=O)O)C(=O)N[C@H](C(N)=O)C(C)C)C(C)C` [Met^18→Cha] (H-AVSEIQLMHNLGKHLNS[Cha]RRVEWLRKKLQDV-NH2; N-terminus assumed), the CD helical residues in series [1] was 8. In addition, the IC50 on PTHR-delNt was 0.408 ± 0.032 µM.

Consider `CC[C@H](C)[C@H](NC(=O)[C@H](CCC(=O)O)NC(=O)[C@H](CO)NC(=O)[C@@H](NC(=O)[C@H](C)N)C(C)C)C(=O)N[C@@H](CCC(N)=O)C(=O)N[C@@H](CC(C)C)C(=O)N[C@@H](CCSC)C(=O)N[C@@H](Cc1c[nH]cn1)C(=O)N[C@@H](CC(N)=O)C(=O)N[C@@H](CC(C)C)C(=O)NCC(=O)N[C@@H](CCCCN)C(=O)N[C@@H](Cc1c[nH]cn1)C(=O)N[C@@H](CC(C)C)C(=O)N[C@@H](CC(N)=O)C(=O)N[C@@H](CC1CCCCC1)C(=O)N[C@@H](CCSC)C(=O)N[C@@H](CCCNC(=N)N)C(=O)N[C@@H](CCCNC(=N)N)C(=O)N[C@H](C(=O)N[C@@H](CCC(=O)O)C(=O)N[C@@H](Cc1c[nH]c2ccccc12)C(=O)N[C@@H](CC(C)C)C(=O)N[C@@H](CCCNC(=N)N)C(=O)N[C@@H](CCCCN)C(=O)N[C@@H](CCCCN)C(=O)N[C@@H](CC(C)C)C(=O)N[C@@H](CCC(N)=O)C(=O)N[C@@H](CC(=O)O)C(=O)N[C@H](C(N)=O)C(C)C)C(C)C` [Ser^17→Cha] (H-AVSEIQLMHNLGKHLN[Cha]MRRVEWLRKKLQDV-NH2; N-terminus assumed), for which the CD helical residues in series [1] is recorded as 9. The 50% inhibitory concentration (IC50) on PTHR-delNt is 0.179 ± 0.041 µM.

For `CC[C@H](C)[C@H](NC(=O)[C@H](CCC(=O)O)NC(=O)[C@H](CO)NC(=O)[C@@H](NC(=O)[C@H](C)N)C(C)C)C(=O)N[C@@H](CCC(N)=O)C(=O)N[C@@H](CC(C)C)C(=O)N[C@@H](CCSC)C(=O)N[C@@H](Cc1c[nH]cn1)C(=O)N[C@@H](CC(N)=O)C(=O)N[C@@H](CC(C)C)C(=O)NCC(=O)N[C@@H](CCCCN)C(=O)N[C@@H](Cc1c[nH]cn1)C(=O)N[C@@H](CC(C)C)C(=O)N[C@@H](CC(N)=O)C(=O)N[C@@H](CO)C(=O)N[C@@H](CCSC)C(=O)N[C@@H](CCCNC(=N)N)C(=O)N[C@@H](CCCNC(=N)N)C(=O)N[C@H](C(=O)N[C@@H](CCC(=O)O)C(=O)N[C@@H](CC1CCCCC1)C(=O)N[C@@H](CC(C)C)C(=O)N[C@@H](CCCNC(=N)N)C(=O)N[C@@H](CCCCN)C(=O)N[C@@H](CCCCN)C(=O)N[C@@H](CC(C)C)C(=O)N[C@@H](CCC(N)=O)C(=O)N[C@@H](CC(=O)O)C(=O)N[C@H](C(N)=O)C(C)C)C(C)C` [Trp^23→Cha] (H-AVSEIQLMHNLGKHLNSMRRVE[Cha]LRKKLQDV-NH2; N-terminus assumed), the CD helical residues in series [1] is 8. Moreover, on PTHR-delNt (COS-7 membranes), the “effect on binding to PTHR-delNt (in words)” value is “little or no effect on binding to PTHR-delNt” and the “reduction (alteration) of binding affinity for PTHR-delNt relative to parent peptide” value is reported as “three-fold or less”. Besides, the IC50 on PTHR-delNt stood at 0.867 ± 0.402 µM.

As a reminder, the IC50 is the concentration that gives 50% inhibition.
